Assay results: ChEMBL document CHEMBL4622979, “Non-rigid Diarylmethyl Analogs of Baloxavir as Cap-Dependent Endonuclease Inhibitors of Influenza Viruses” (J Med Chem, 2020)

Experiments:
[1] = Cmax in CD1 mouse plasma assessed as (12aR)-12-[(S)-(3,4-Difluorophenyl)(phenyl)methyl]-7-hydroxy3,4,12,12a-tetrahydro-1H-[1,4]oxazino[3,4-c]pyrido[2,1-f ][1,2,4]triazine-6,8-dione level at 15 mg/kg, po administered as single dose by LC-MS/MS analysis; format: ADME, organism-based; design: dose 15 mg/kg, route oral; details: in vivo
[2] = AUClast in CD1 mouse plasma assessed as (12aR)-12-[(S)-(3,4-Difluorophenyl)(phenyl)methyl]-7-hydroxy3,4,12,12a-tetrahydro-1H-[1,4]oxazino[3,4-c]pyrido[2,1-f ][1,2,4]triazine-6,8-dione level at 15 mg/kg, po administered as single dose by LC-MS/MS analysis; format: ADME, organism-based; design: dose 15 mg/kg, route oral, time 0 - last; details: in vivo
[3] = Cmax in CD1 mouse lung assessed as (12aR)-12-[(S)-(3,4-Difluorophenyl)(phenyl)methyl]-7-hydroxy3,4,12,12a-tetrahydro-1H-[1,4]oxazino[3,4-c]pyrido[2,1-f ][1,2,4]triazine-6,8-dione level at 15 mg/kg, po administered as single dose by LC-MS/MS analysis; format: ADME, organism-based; design: dose 15 mg/kg, route oral; details: in vivo
[4] = AUClast in CD1 mouse lung assessed as (12aR)-12-[(S)-(3,4-Difluorophenyl)(phenyl)methyl]-7-hydroxy3,4,12,12a-tetrahydro-1H-[1,4]oxazino[3,4-c]pyrido[2,1-f ][1,2,4]triazine-6,8-dione level at 15 mg/kg, po administered as single dose by LC-MS/MS analysis; format: ADME, organism-based; details: in vivo
[5] = Stability in simulated gastric fluid assessed as parent compound remaining at 1 uM measured after 4 hrs at pH 1.2 by LC-MS/MS analysis; format: physicochemical; details: read-out: Stability
[6] = Oral bioavailability in CD1 mouse assessed as (12aR)-12-[(S)-(3,4-Difluorophenyl)(phenyl)methyl]-7-hydroxy3,4,12,12a-tetrahydro-1H-[1,4]oxazino[3,4-c]pyrido[2,1-f ][1,2,4]triazine-6,8-dione level at 15 mg/kg administered as single dose by LC-MS/MS analysis; format: ADME, organism-based; details: in vivo
[7] = Stability in simulated intestinal fluid assessed as parent compound remaining at 1 uM measured after 4 hrs at pH 1.2 by LC-MS/MS analysis; format: physicochemical; details: read-out: Stability
[8] = Ratio of AUClast in CD1 mouse lung to plasma assessed as (12aR)-12-[(S)-(3,4-Difluorophenyl)(phenyl)methyl]-7-hydroxy3,4,12,12a-tetrahydro-1H-[1,4]oxazino[3,4-c]pyrido[2,1-f ][1,2,4]triazine-6,8-dione level at 15 mg/kg, po administered as single dose by LC-MS/MS analysis; format: ADME, organism-based; details: other tissue
[9] = Ratio of Cmax in CD1 mouse lung to plasma assessed as (12aR)-12-[(S)-(3,4-Difluorophenyl)(phenyl)methyl]-7-hydroxy3,4,12,12a-tetrahydro-1H-[1,4]oxazino[3,4-c]pyrido[2,1-f ][1,2,4]triazine-6,8-dione level at 15 mg/kg, po administered as single dose by LC-MS/MS analysis; format: ADME, organism-based; details: other tissue

For `COC(=O)OCOc1c2n(ccc1=O)N([C@@H](c1ccccc1)c1ccc(F)c(F)c1)[C@@H]1COCCN1C2=O`, the Cmax [1] was 397 ng/mL, the AUClast [2] was 2078 ng·h/mL and the Cmax [3] was 1476 ng/g. It also gave an AUClast [4] of 8806 ng·h/g, a remaining at 4 h, 1 µM [5] of 97.7% and an F [6] of 29.9%. The remaining at 4 h, 1 µM [7] was 95.8%, the “Ratio AUC” value [8] was 4.2 and the Ratio [9] was 3.7.
